Assay results taken from US20080089860A1, “Therapeutic compositions and methods useful in treating cancer” (priority 2006, published 2008).
Several values for one entry are separate records, joined by “and”; a condition that tells them apart may be missing. Equal values may be shown once.

Experiments:
[1] = test system: NB4 cells; assay: NB4 differentiation (NBT reduction, CD11b); format: cell-based, human; details: GM-CSF alone
Experimental: (§1) Differentiation of AML cell lines was assessed by their ability to produce superoxide as measured by reduction of NBT to formazan and by analysis of expression of CD11b surface marker by flow cytometry. For NBT reduction, each cell suspension was mixed with an equal volume of solution containing 1 mg/ml of NBT (Sigma) and 2.5 µg/ml of TPA for 30 minutes at 37° C. After incubation, cells containing the purple formazan deposits and cells devoid of NBT-reducing activity (white cells) in each sample were determined by counting 200 cells under microscope. Data is expressed as a percentage based on the following ratio: purple cells/purple+white cells. For analysis of cell surface antigens, cells were exposed to phycoerythrin (PE)-conjugated murine anti-human CD11b (DAKO Corp., Carpinteria, Calif.). Analysis of fluorescence was performed on a FACScan flow cytometer (Beckton Dickinson, Mountain View, Calif.).

[2] = test system: U937 cells; assay: U937 differentiation (NBT reduction); format: cell-based, human; details: day 6
Experimental: as §1

[3] = test system: HL-60 cells; assay: HL-60 differentiation (NBT reduction); format: cell-based, human; details: day 6
Experimental: as §1

[4] = test system: Jak2/Stat5 and cellular protein tyrosine phosphorylation in Baf3 cells; assay: Cellular protein phosphorylation and Western blotting in Baf3 cells; format: cell-based, murine; details: Baf3 cells
Experimental: For induction of cellular protein phosphorylation by sodium stibogluconate or pervanadate, Baf3 cells were incubated in 0.1% FCS-RPMI 1640 medium at 37° C. for 16 hours. The cells were then washed twice in RPMI 1640 medium and incubated with sodium stibogluconate or pervanandate (0.1 mM) for various times prior to termination by lysing cells in cold lysis buffer (50 mM Tris, pH 7.4; 150 mM NaCl; 0.2 mM Na3VO4; 20 mm NaF; 1% Nonidet P-40; 2 mM PMSF; 20 µg/ml of Aprotinin and 1 mM of sodium molybdic acid). To determine the effect of sodium stibogluconate or potassium antimonyl tartrate on IL-3-induced Jak/Stat phosphorylation, Baf3 cells were deprived of the growth factor for 16 hours in 0.1% FCS RPMI 1640 medium and then incubated with or without sodium stibogluconate or potassium antimonyl tartrate for 10 minutes. IL-3 was next added to the cell suspension and incubated for various times. The Cells were then harvested and lysed in cold lysis buffer at 4° C. for 45 minutes. Total cell lysates (TCL) were separated in SDS-PAGE gels, blotted onto nitrocellulose membrane (Schleicher & Schuell), probed with specific antibodies and detected using an enhanced chemiluminescence kit (ECL, Amersham, Arlington Heights, Ill.).

[5] = test system: Baf3 cells; assay: Baf3 cell proliferation assay; format: cell-based, murine
Experimental: The murine hematopoietic cell line Baf3 was maintained in RPMI 1640 medium supplemented with 10% fetal calf serum (FCS) and murine IL-3 (20 units/ml) as described previously in Damen et al., J. Biol. Chem. 270, 23402 (1995). Human myeloid cell line TF-1 was maintained in RPMI 1640 supplemented with 10% FCS and 40 ng/ml of recombinant human GM-CSF as described previously in Thomassen et al., Clin. Immunol. 95, 85 (2000). For cell proliferation assays, cells were washed in 10% FCS medium twice, resuspended in 10% FCS medium, incubated at 37° C. for 16 hours, and then cultured at 37° C. in 10% FCS medium containing various amounts of cytokines, sodium stibogluconate, or potassium antimonyl tartrate for 3-6 days as indicated. The cell numbers in proliferation assays were determined by an MTT assay or by microscopic cell counting as indicated.

[6] = target: T1, PTP1B (Homo sapiens, UniProt P18031); assay: In vitro PTPase assay, GST/PTP1B; format: biochemical; details: 1-1,000 μg/ml
T1 construct: purchased Upstate Biotechnology Inc. (Lake Placid, N.Y.)
Experimental: In vitro PTPase activities were measured using the commercial protein tyrosine phosphatase assay kit (Upstate Biotechnology, Inc. (“UBI”)) following established procedure known to one of skill in the art. This assay measures the in vitro dephosphorylation of a synthetic phosphotyrosine peptide of the sequence Arg-Arg-Leu-Ile-Glu-Asp-Ala-Gle-T- -yr-Ala-Ala-Arg-Gly, wherein the tyrosine is phosphorylated (SEQ ID NO: 3). Briefly, 0.01 µg of GST/PTPase fusion proteins was incubated in 50 µl of Tris buffer (10 mM Tris, pH 7.4) containing different concentrations of inhibitors or chemicals (0-1,000 µg/ml) at 22° C. for 10 minutes, followed by addition of 0.2 mM of the phosphotyrosine peptide and incubation at 22° C. for 18 hours. 100 µl of Malachite Green solution was added and incubated for 5 minutes, and the absorbance at 660 nm was measured after 5 minutes.
In vitro PTPase assays were used to determine the effects of levamisole (Sigma), pentamidine (American Pharmaceutical Partners, Inc.), and ketoconazole (Sigma) on recombinant PTPases, following established procedures (Pathak et al., J. Imumol. 167, 3391 (2001); Pathak et al., Leukemia 16, 2285 (2002), Yi et al., J. Immunol. 169, 5978 (2002)) using a synthetic phosphotyrosine peptide or DiFMUP as the substrate as detailed above in section I.A.2.

[7] = target: T2, SHP-1 (Mus musculus, UniProt P29351); assay: In vitro PTPase assay, GST/SHP-1; format: biochemical; details: 1-1,000 μg/ml
T2 construct: made in house
Experimental: In vitro PTPase activities were measured using the commercial protein tyrosine phosphatase assay kit (Upstate Biotechnology, Inc. (“UBI”)) following established procedure known to one of skill in the art. […] Briefly, 0.01 µg of GST/PTPase fusion proteins was incubated in 50 µl of Tris buffer (10 mM Tris, pH 7.4) containing different concentrations of inhibitors or chemicals (0-1,000 µg/ml) at 22° […] 100 µl of Malachite Green solution was added and incubated for 5 minutes, and the absorbance at 660 nm was measured after 5 minutes.
To assess the reversibility of inhibition of SHP-1 by PTPase inhibitors, GST/SHP-1 fusion protein bound on glutathione beads were pre-incubated in cold Tris buffer or Tris buffer containing the PTPase inhibitors at 4° C. for 30 minutes. The beads were then either subjected to in vitro PTPase assays or washed 3 times in Tris buffer then subjected to in vitro PTPase assays.
Briefly, individual PTPases (0.1 µg/reaction) in 50 µL of PTPase buffer (50 mM Tris, pH 7.4) were incubated at 22° C. for 10 minutes or as indicated in the absence or presence of inhibitory compounds. Substrates (0.2 mM phosphotyrosine peptide) were then added and allowed to react at 22° C. for 18 hrs. PTPase activity of individual reactions was measured by adding 100 µL of malachite green solution (UBI) and then quantifying the amounts of free phosphate cleaved by the PTPase from the peptide substrate by spectrometry (OD660 nm). […] Relative PTPase activities were calculated based on the formula: (PTPase activity in the presence of an inhibitory compound/PTPase activity in the absence of the compound)× 100%. To assess the reversibility of PTPase inhibition, GST fusion proteins of the PTPases bound on glutathione beads (Pharmacia) were pre-incubated with cold Tris buffer (50 mM Tris, pH 7.0) or Tris buffer containing the inhibitor at 4° C. for 30 minutes. The beads were then washed three times in cold Tris buffer or not washed prior to subjecting to in vitro PTPase assays.

[8] = test system: acute promyelocytic leukemia; details: in vivo; cited from earlier work
[9] = test system: NB4 cells; assay: NB4 cell cycle analysis and Annexin V/propidium iodide assay; format: cell-based, human; details: 3 days; sodium stibogluconate 250 μg/ml, ATRA 1 μM
Experimental: […] Briefly, the cells were fixed in cold ethanol and incubated for 30 minutes at 4° C. in the dark with a solution of […], 1 mg/ml RNase and 0.1% NP-40. Analysis was performed immediately after staining using the CELLFIT program (Becton Dickinson, Mountain View, Calif.).
] Annexin V staining of exposed membrane phospholipid phosphatidylserine (PS) was done using the Annexin V assay kit (Pharmingen, San Diego, Calif.). Briefly, NB4 cells were cultured in the 10% FCS RPMI 1640 medium in the absence or presence of sodium stibogluconate (250 µg/ml) or ATRA (1 µM) for 3 days. Cells were then washed in PBS twice and stained in binding buffer (10 mM Hepes, pH 7.4; 140 mM NaCl; 2.5 mM CaCl2) containing Annexin V-FITC and propidium iodide for 15 min. The reaction was stopped by adding 10 volumes of binding buffer and analyzed by FACS (Becton Dickinson Facsvantage).

[10] = sodium stibogluconate 400 μg/ml, GM-CSF 25 ng/ml

T1 sequence (P18031 whole entry, species assumed): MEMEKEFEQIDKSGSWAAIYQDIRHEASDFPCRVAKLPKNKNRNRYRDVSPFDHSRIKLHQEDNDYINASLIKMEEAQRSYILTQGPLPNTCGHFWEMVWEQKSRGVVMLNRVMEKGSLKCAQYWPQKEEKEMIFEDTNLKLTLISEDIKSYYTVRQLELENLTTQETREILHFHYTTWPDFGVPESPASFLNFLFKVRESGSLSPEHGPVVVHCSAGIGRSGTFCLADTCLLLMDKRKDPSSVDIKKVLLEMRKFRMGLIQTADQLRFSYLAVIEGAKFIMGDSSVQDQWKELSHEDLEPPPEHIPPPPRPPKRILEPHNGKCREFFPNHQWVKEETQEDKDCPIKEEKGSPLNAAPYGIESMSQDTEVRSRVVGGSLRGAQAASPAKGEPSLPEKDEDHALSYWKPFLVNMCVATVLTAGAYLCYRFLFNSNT
T2 sequence (P29351 whole entry): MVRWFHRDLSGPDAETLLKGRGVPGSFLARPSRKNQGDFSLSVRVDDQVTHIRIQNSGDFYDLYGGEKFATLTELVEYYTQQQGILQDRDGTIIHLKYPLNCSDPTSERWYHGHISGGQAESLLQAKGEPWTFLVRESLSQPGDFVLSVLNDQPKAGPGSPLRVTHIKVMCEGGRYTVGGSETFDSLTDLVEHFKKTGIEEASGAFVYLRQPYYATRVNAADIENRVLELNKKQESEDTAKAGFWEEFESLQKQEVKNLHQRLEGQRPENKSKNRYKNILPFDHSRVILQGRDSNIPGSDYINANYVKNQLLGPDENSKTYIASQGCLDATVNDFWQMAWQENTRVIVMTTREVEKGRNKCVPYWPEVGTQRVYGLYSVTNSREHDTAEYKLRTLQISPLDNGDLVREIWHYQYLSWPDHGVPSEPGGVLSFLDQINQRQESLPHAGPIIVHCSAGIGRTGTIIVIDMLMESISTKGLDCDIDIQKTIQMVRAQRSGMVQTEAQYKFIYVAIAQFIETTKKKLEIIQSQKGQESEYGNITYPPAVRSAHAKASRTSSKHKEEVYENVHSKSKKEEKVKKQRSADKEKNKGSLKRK

GM-CSF: recombinant human GM-CSF
effect on NB-4 cell differentiation [1]: no detectable effect | maximal increase of NBT-positive cells ([2]; GM-CSF alone): 8-10% | maximal increase of NBT-positive cells ([3]; GM-CSF alone): 8-10%

O.O.O.O=C([O-])[C@H]([O-])[C@@H]([O-])C(=O)[O-].O=C([O-])[C@H]([O-])[C@@H]([O-])C(=O)[O-].[K+].[K+].[Sb+3].[Sb+3] [potassium antimonyl tartrate]
IL-3-induced Stat5 phosphorylation [4]: failed to enhance | toxicity against Baf3 cells [5]: marked toxicity | IL-3-induced proliferation of Baf3 cells ([5]; IL-3 10 units/ml, three days): failed to enhance | inhibition of PTP1B [6]: no detectable inhibition | inhibition of SHP-1 [7]: no detectable inhibition

CC1=C(/C=C/C(C)=C/C=C/C(C)=C/C(=O)O)C(C)(C)CCC1 [ATRA, All-trans-retinoic acid]
long term APL-free survival [8]: exceeding 75% | U937 differentiation (NBT-positive cells) [2, 10]: 72% and 73% | HL-60 differentiation (NBT-positive cells) [3, 10]: 90% | cell cycle distribution of NB4 cells [9]: arrested at G1 phase
